Calls of active or inactive are those of the source.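 The calls were made as follows: active = a tumor-causing dose value with its tumor site reported for any sex and species group of a rodent or other animal cancer study; inconclusive = only studies judged inadequate by the national testing program; inactive = tested in at least one study, none positive.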
Experiment: DSSTox (CPDBAS) Carcinogenic Potency Database Summary SingleCellCall Results
Conditions: animal chronic carcinogenicity bioassays, CPDB summary call
Method in brief: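 Categorical carcinogenicity call compiled from published chronic rodent and other animal cancer bioassays; based on the most positive result across experiments for each sex-species, assigned on minimal evidence for or against activity.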

Row | SMILES | outcome
1 | Nc1ccc(-c2ccccc2)cc1O | inactive
2 | O=NO | active
3 | CCN(Cc1cccc(S(=O)(=O)O)c1)c1ccc(C(=C2C=CC(=[N+](CC)Cc3cccc(S(=O)(=O)O)c3)C=C2)c2ccc(O)cc2S(=O)(=O)[O-])cc1 | inactive
4 | N#CSCc1ccccc1 | inactive
5 | CCn1cc(C(=O)O)c(=O)c2cc3c(cc21)OCO3 | active
6 | COP(=O)(OC)OC | active
7 | COc1ccc(N)c(OC)c1 | inactive
8 | CCOc1ccc2c(c1)C(C)=CC(C)(C)N2 | inactive; active
9 | O=c1ccc(=O)[nH][nH]1 | inactive; active
10 | CC(I)C1OCC(CO)O1 (stereo unspecified) | active
11 | Cc1ccc(C)c(C)c1 | active
12 | CC(C)Nc1nc(Cl)nc(NC(C)C)n1 | inactive
13 | CCCCCCOc1cc(C)c(O)c(C)c1C | inactive; active
14 | CCSCCC(N)C(=O)O (stereo unspecified) | active
15 | OC[C@@H](O)[C@@H](O)[C@H](O)[C@H](O)CO | inactive
16 | O=NN1CCOCC1 | active; inactive
17 | FC(F)OC(Cl)C(F)(F)F (stereo unspecified) | inactive
18 | c1ccc2ccccc2c1 | active
19 | CC1(C)O[C@@H]2C[C@H]3[C@@H]4CCC5=CC(=O)C=C[C@]5(C)[C@@]4(F)[C@@H](O)C[C@]3(C)[C@]2(C(=O)CO)O1 | active
20 | CC1(C)S[C@@H]2[C@H](NC(=O)COc3ccccc3)C(=O)N2[C@H]1C(=O)O | inactive
21 | COc1ccccc1N1CCN(CCCNc2cc(=O)n(C)c(=O)n2C)CC1 | inactive
22 | Oc1ccc2c(c1)OCO2 | active; inactive
23 | ClC#CCl | active
24 | O=C(O)c1cccnc1 | inactive
25 | FC(Cl)(Cl)Cl | inactive; active
26 | O.[Cd+2].[Cl-].[Cl-] | inactive

Row | SMILES | outcome
27 | CN(C)C(=O)Nc1ccc(Cl)c(Cl)c1 | inactive
28 | ClC1=C(Cl)C2(Cl)C3C(Cl)OC(Cl)C3C1(Cl)C2(Cl)Cl (stereo unspecified) | inactive
29 | CCC[C@@H]1O[C@@H]2C[C@H]3[C@@H]4CCC5=CC(=O)C=C[C@]5(C)[C@H]4[C@@H](O)C[C@]3(C)[C@]2(C(=O)CO)O1 | active; inactive
30 | O=C(Nc1ccc2c(c1)Cc1ccccc1-2)C(F)(F)F | active
31 | Cc1cc(Cc2cc(C)cc(C(C)(C)C)c2O)c(O)c(C(C)(C)C)c1 | inactive; active
32 | C=CC=C | active; inactive
33 | O=C1OC(c2ccc(O)cc2)(c2ccc(O)cc2)c2ccccc21 | active
34 | O=C(OOC(=O)c1ccccc1)c1ccccc1 | inactive
35 | Cc1ccc2c(c1[N+](=O)[O-])C(=O)c1ccccc1C2=O | active
36 | Cc1cn([C@H]2C[C@H](N=[N+]=[N-])[C@@H](CO)O2)c(=O)[nH]c1=O | active
37 | NC(N)=Nc1nc(CSCCNc2nsnc2N)cs1 | active
38 | CN(N=O)c1ccccn1 | active
39 | Cc1cc(C)c(S(=O)(=O)O)cc1N=Nc1cc(S(=O)(=O)O)c2ccccc2c1O | active
40 | CC(Cl)C=O (stereo unspecified) | active
41 | c1ccc(C2CO2)cc1 (stereo unspecified) | active
42 | Nc1ccc(-c2ccc(N)c(Cl)c2)cc1Cl | active
43 | O=S(=O)(c1ccc(Cl)cc1)c1cc(Cl)c(Cl)cc1Cl | inactive
44 | Cc1c(N(C)CS(=O)(=O)O)c(=O)n(-c2ccccc2)n1C | active
45 | CCC1(c2ccccc2)C(=O)N=C(O)NC1=O (stereo unspecified) | active
46 | O=[N+]([O-])c1ccc(-c2nc(N(CCO)CCO)c3ccccc3n2)s1 | active; inactive
47 | Nc1nc(-c2ccc([N+](=O)[O-])o2)cs1 | active
48 | ClC(Cl)Br | active
49 | Cc1cc(C)c(N=Nc2c(O)c(S(=O)(=O)O)cc3cc(S(=O)(=O)O)ccc23)cc1C | active; inactive
50 | CC=O | active; inactive
51 | CNN | active

From PubChem BioAssay AID1189 (EPA DSSTox, 2008)
